The values below come from ChEMBL document CHEMBL3132836, “Structure-based drug design of chromone antagonists of the adenosine A2A receptor” (Medchemcomm, 2014).

Data set [1] relates to CHO. As to the kind of experiment: Selectivity ratio of Ki for human adenosine A1 receptor expressed in CHO cells to Ki for human adenosine A2A receptor expressed in HEK293 cells. The format is cell-based.
Data set [2] deals with Adenosine receptor A2a (Homo sapiens, UniProt P29274). As to the kind of experiment: Displacement of [3H]ZM241385 from human adenosine A2A receptor expressed in HEK293 cells after 1 hr by liquid scintillation counting. In kind it is cell-based. The note with it: for Ki: read-out: pKi (converted).
Data set [3] in a line: Half life in Sprague-Dawley rat liver microsomes at 3 uM by LC-MS analysis. The format is ADME. In general terms: Liver microsomes are a subcellular fraction often used to study metabolism.
The target in data set [4] is T1, Adenosine receptor A1 (Homo sapiens, UniProt P30542).
T1 sequence (P30542 whole entry): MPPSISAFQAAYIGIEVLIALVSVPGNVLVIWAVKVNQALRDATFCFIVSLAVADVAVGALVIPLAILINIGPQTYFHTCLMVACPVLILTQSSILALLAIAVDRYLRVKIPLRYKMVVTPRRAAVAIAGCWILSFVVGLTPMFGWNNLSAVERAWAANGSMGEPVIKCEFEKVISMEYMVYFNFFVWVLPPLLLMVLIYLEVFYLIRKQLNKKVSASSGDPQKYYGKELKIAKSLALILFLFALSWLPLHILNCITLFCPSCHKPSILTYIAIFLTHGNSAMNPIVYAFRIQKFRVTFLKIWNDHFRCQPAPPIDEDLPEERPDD
As to the kind of experiment: Displacement of [3H]DPCPX from human adenosine A1 receptor expressed in CHO cells after 1 hr by liquid scintillation counting. In kind it is cell-based. A general note: Loss of bound radioactivity is the signal in a displacement assay; it reports binding, not function.

Data set [5] addresses T2, Adenosine receptor A3 (Homo sapiens, UniProt P0DMS8).
T2 sequence (P0DMS8 whole entry): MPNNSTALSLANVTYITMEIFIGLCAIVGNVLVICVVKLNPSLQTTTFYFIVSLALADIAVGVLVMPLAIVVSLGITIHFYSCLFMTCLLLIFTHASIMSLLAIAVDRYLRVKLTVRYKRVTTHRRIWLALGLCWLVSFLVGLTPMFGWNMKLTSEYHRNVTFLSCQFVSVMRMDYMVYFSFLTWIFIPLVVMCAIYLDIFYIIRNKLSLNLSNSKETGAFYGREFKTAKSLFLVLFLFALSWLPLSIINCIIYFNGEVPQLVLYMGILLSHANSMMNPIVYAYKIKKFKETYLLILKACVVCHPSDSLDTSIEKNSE
Nature of the data set: Displacement of [125I]AB-MECA from adenosine A3 receptor (unknown origin) expressed in CHO-K1 cells after 60 mins. In kind it is cell-based.

Data set [6] concerns the target T3, Adenosine receptor A2b (Homo sapiens, UniProt P29275).
T3 sequence (P29275 whole entry): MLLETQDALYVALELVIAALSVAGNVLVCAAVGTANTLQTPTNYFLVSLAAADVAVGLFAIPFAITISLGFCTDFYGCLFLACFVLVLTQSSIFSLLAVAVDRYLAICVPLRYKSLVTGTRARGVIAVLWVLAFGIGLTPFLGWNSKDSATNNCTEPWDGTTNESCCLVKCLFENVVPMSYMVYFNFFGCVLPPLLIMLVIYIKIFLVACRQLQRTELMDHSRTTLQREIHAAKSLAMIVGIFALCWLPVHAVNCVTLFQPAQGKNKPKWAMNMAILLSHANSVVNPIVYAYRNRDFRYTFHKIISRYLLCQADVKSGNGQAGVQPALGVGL
As to the kind of experiment: Displacement of [3H]MRS1754 from adenosine A2B receptor (unknown origin) expressed in HEK293 cells after 90 mins. In kind it is cell-based.

The structures appear in SMILES notation. pIC50, pKi: −log10 of the molar value.

Chain of Adenosine receptor A2a (P29274 whole entry): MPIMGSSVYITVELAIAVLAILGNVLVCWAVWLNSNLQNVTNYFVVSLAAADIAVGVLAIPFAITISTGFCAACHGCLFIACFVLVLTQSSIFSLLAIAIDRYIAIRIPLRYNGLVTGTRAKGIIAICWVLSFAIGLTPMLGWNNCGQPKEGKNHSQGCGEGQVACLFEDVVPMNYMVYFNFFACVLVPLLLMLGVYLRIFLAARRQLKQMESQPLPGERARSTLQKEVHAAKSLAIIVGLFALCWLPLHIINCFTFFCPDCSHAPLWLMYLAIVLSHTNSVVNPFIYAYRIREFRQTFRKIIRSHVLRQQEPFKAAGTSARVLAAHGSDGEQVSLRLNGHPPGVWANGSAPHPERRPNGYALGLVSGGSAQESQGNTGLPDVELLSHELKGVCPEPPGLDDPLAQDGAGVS

Take `CC(=O)Oc1cc(C)c2c(=O)c(-c3nc(C)cs3)coc2c1`: the Ratio Ki in data set [1] worked out at 13. Further, the Ki in data set [2] was 31.6 nM.

Take `C#CCCCOc1cc(C)c2c(=O)c(-c3nc(C)cs3)coc2c1`: the Ki in data set [2] is 25.1 nM.

For `CCCc1cc2c(=O)c(-c3nc(C)cs3)coc2cc1O`, the Ki in data set [2] was 25.1 nM.

Take `Cc1csc(-c2coc3cc(OCCN(C)C)cc(C)c3c2=O)n1`: the Ki in data set [2] is 1580 nM.

With `Cc1csc(-c2coc3cc(OCC(=O)O)cc(C)c3c2=O)n1`, the Ki in data set [2] is 2000 nM.

For `Cc1csc(-c2c(C)oc3cc(O)ccc3c2=O)n1`, the Ki in data set [2] was 7940 nM.

With `CCOC(=O)COc1cc(C)c2c(=O)c(-c3nc(C)cs3)coc2c1`, the Ki in data set [2] is 100 nM.

Consider `CCc1cc2c(=O)c(-c3cscn3)coc2cc1O`, for which the Ki in data set [2] is 1580 nM.

In the case of `CCc1cc2c(=O)c(-c3csc(C)n3)coc2cc1O`, in data set [2], the Ki is 50.1 nM.

With `CCCc1cc2c(=O)c(-c3csc(C)n3)coc2cc1O`, the Ki in data set [2] is 31.6 nM.

`CCc1cc2c(=O)c(-c3nc(C)cs3)coc2cc1O`: the Ratio Ki in data set [1] is more than 100. Also, the Ki in data set [2] was 79.4 nM.

As for `Cc1csc(-c2coc3cc(O)ccc3c2=O)n1`, the Ki in data set [2] is 2000 nM.

On to `CCCCCc1cc2c(=O)c(-c3nc(C)cs3)coc2cc1O`, for which the Ratio Ki in data set [1] was more than 100. In addition, the Ki in data set [2] was 20 nM.

In general, half-life refers to the time needed for the level to fall by half in the phase considered. The low end stands for fast loss, the high end for slow loss. Molecule `Cc1csc(-c2coc3cc(OCC4CC4)cc(C)c3c2=O)n1` yielded a half-life at 3 µM in data set [3] of 18 min. In addition, the Ratio Ki in data set [1] is more than 100. For the same molecule, in data set [2], the Ki is 79.4 nM.

The term pKi denotes −log10 of the Ki, conventionally taken in molar units. The term pIC50 denotes the negative decadic logarithm of the IC50, by convention in mol/L. Lower therefore signals a high IC50. In data set [3], `CCOc1cc2occ(-c3nc(C)cs3)c(=O)c2cc1CC` had a half-life at 3 µM of 16 min. Also, the pKi in data set [4] was 5.30; in data set [2] (read-out: Ki), 7.40; in data set [5], less than 5.00; in data set [6], less than 5.00. Moreover, the Ki in data set [2] is 39.8 nM. Moreover, the pIC50 in data set [5] and in data set [6] was less than 5.00 throughout.

Take `Cc1csc(-c2coc3cccc(C)c3c2=O)n1`: in data set [3], the half-life at 3 µM is 14 min. Also, the Ki in data set [2] is 316 nM.
